Test results: patent publication US20260265055A1, “Sulfine-Based Compounds for Generating Hydrogen Persulfide” (Brown University, priority 2023, published 2026)

What was measured:
[1] = Oxidation of TT to TTS by ROS, UV-Vis (339 nm); format: physicochemical; conditions: for k2 (TT oxidation rate constant): PBS pH 7.4
Description: TT was treated with H2O2, the most prevalent oxidant in biology. Stock solutions for hydrogen peroxide (H2O2), t-butyl hydroperoxide (^tBuOOH), peracetic acid (AcOOH), and sodium hypochlorite (NaOCl), were prepared in deionized water. H2O2 was diluted from a commercially available solution (30%). The concentration of H2O2 was determined using the absorption at 240 nm (ε=[…]). ^tBuOOH was diluted from commercially available solutions (70%). AcOOH was diluted from commercially available solutions (32%). NaOCl was diluted from commercially available solution containing 11-15% available chlorine. The concentration of HOCl was determined using the absorption at 292 nm (ε=[…]).
TT was dissolved in DMSO to afford a 10 mM stock solution. For H2O2, ^tBuOOH and AcOOH, substrate TT (10 μM) and ROS (1 mM) were mixed in PBS buffer, pH=7.4 with DMSO (1%) under room temperature. For NaClO, TT (100 μM) and NaClO (1 mM) were mixed in PBS buffer, pH=7.4 with DMSO (1%) under room temperature. The rate of production of TTS was detected by UV-Vis spectrum (λ=339 nm) based on the decrease of TT. A pseudo-first order reaction was assumed; the second-order k constant (k2) was calculated using the method described below.
(§1) The transformation from TT to TTS was clean. The progress of the reaction was monitored by UV-Vis spectra and the reaction rate constant (k2) was measured to be […]. The oxidation of TT by several other oxidants including t-BuOOH, AcOOH, and OCl^− was measured and the TT oxidation rate constants k2 are summarized in Table 1. ^aThe rate constant was estimated.

[2] = NMR monitoring of the oxidation of TT to TTS; format: physicochemical; conditions: TT 20 mM in CD3CN/D2O (1:1) with H2O2, room temperature
Description: To an NMR tube, the solution of TT (0.2 mmol, final concentration is 20 mM) in CD3CN/D2O (1:1) was added, followed by adding H2O2 (10 μM, 20 μM). The NMR tube was shacked immediately and incubated at room temperature for 0 min, 30 min, 3 h, and 24 h.
as §1

[3] = SSP4 fluorescence assay to determine generation of H2S2 in buffer; conditions: SSP4 5 μM
Description: To further evaluate the specificity of TTS in converting H2S to H2S2, SSP4 was used to monitor the formation of H2S2 in this reaction and the results were compared with a series of controls. Details of the SSP4 experiments are provided later herein. SSP4 is a well-established fluorescent sensor for sulfane sulfurs including H2S2. See Shieh, M. et al., Shining a light on SSP4: a comprehensive analysis and biological applications for the detection of sulfane sulfurs. Redox Biol. 2022, 56, 102433. […] Without wishing to be bound by scientific theory, it is believed that thiols would compete with SSP4 to react with H2S2, thereby causing decreased signals.
SSP4 was dissolved in DMSO to obtain a 200 μM stock solution. CTAB was dissolved in ethanol to yield a 2 mM stock solution. TTS and TT were dissolved in DMSO to make 1 mM stock solutions. Na2S, Na2S2, and L-cysteine were prepared in MilliQ H2O to obtain stock solutions at 2 mM, 1 mM, and 4 mM, respectively. 50 mM PBS buffer was added to individual wells of a black polystyrene, flat-bottomed clear 96-well plate, followed by TTS (25 μM) or TT (25 μM), and Na2S (50 μM), cysteine (100 μM), or Na2S2 (25 μM). For the interference assay, TTS or TT (25 μM) were added to wells with or without Na2S (50 μM). Samples were mixed by pipetting up and down and incubated in the dark at room temperature (rt) for 30 min. Next, CTAB (50 μM) was added to all wells followed by SSP4 (5 μM), and samples were mixed by pipetting up and down. The final volume was 200 μL in each well. Samples were then incubated in the dark at room temperature for another 30 min before being measured on a Molecular Devices SpectraMax iD3 Multi-Mode Microplate Reader (emission 525 nm; excitation 485 nm; integration time […], low PMT sensitivity, attenuation 1, read height 1.00 mm).

HeLa cells = test: Live cell imaging of H2S2 formation with SSP4; format: cell-based; conditions: 30 min
Description: HeLa cells were seeded at ~7000 cells/well in a 96-well clear flat-bottomed BioLite plate (ThermoFisher Scientific, #130188) in DMEM/F12 (1:1) (Gibco, Invitrogen, #11330-032) medium supplemented with 10% fetal bovine serum (FBS) at 37° C., 5% CO2 overnight.
Preparation before cell treatment: Na2S and Na2S2 stocks were prepared at 10 mM in sterile 1×PBS. TTS and TT were prepared at 10 mM concentrations in DMSO. They were then diluted to 50 μM concentrations in serum-free Fluorobrite DMEM in individual Eppendorf tubes (0.5% DMSO). Na2S (final concentration=100 μM) was added to the Eppendorf tube containing Fluorobrite DMEM and TTS or TT immediately before being added to the cells. Compounds were mixed by pipetting up and down prior to cell addition.
Cell treatment: Culturing media was aspirated from all wells, and cells were washed twice with 1×PBS. Compounds were added to cells (200 μL/well) and incubated for 30 min at 37° C., 5% CO2. While cells were incubating, SSP4 treatment was prepared by first adding 5 mM CTAB in ethanol to Fluorobrite DMEM followed by 6.125 mM SSP4 in DMSO to final concentrations of 100 μM and 5 μM, respectively, in a tube. The final volume was 5 mL (0.08% DMSO). Compounds were mixed by pipetting up and down prior to cell addition. After incubation, media was aspirated, and cells were washed twice with 1×PBS. SSP4 treatment was added to all wells (100 μL/well), and cells were incubated for 30 min at 37° C., 5% CO2 for 30 min. Media was then aspirated, and cells were washed three times with 1×PBS. Fluorobrite DMEM was added to all wells before imaging on the Keyence All-in-One Fluorescence Microscope (BZ-X810) (excitation: 470/40 nm; emission: 525/50 nm).
As shown in FIGS. 4(A)-(D), HeLa cells were treated with TTS, TTS+H2S, or TT for 30 min before the fluorescent sensor SSP4 was applied to the cells to monitor the formation of H2S2. […] Na2S2 was used as the positive control in this study (FIG. 4D). Other control studies including TT+H2S, H2S only, and SSP4 only were also performed. […] FIG. 4H is a graph of fluorescence intensities of SSP4 staining. Data are mean values ±SEM calculated using ImageJ. (n=9, where three different images were obtained from each of three samples and quantified).

COC(=O)c1ccc(=S)sc1 [TT, methyl 2-thioxo-2H-thiopyran-5-carboxylate]
k2 (TT oxidation rate constant) ([1]; ROS AcOOH 1 mM, TT 10 μM): 13.9 M⁻¹ s⁻¹
k2 (TT oxidation rate constant) ([1]; ROS H2O2 1 mM, TT 10 μM): 0.1 M⁻¹ s⁻¹
k2 (TT oxidation rate constant) ([1]; ROS OCl^− (NaClO 1 mM), TT 100 μM, rate constant was estimated): >1.0 × 10^3 M^−1 s^−1 a
k2 (TT oxidation rate constant) ([1]; ROS ^tBuOOH 1 mM, TT 10 μM): 0.01 M⁻¹ s⁻¹
reaction rate constant (k2) of TT oxidation by H2O2 ([1]; UV-Vis, TT 10 μM, H2O2 1 mM, PBS pH 7.4, room temperature): 0.1 M⁻¹ s⁻¹
time to completion of TT to TTS oxidation (NMR) [2]: 24 h
SSP4 fluorescence response (H2S2 formation) ([3]; 25 μM compound + 50 μM Na2S (H2S), PBS): No fluorescence
SSP4 fluorescence response (sulfane sulfur formation) ([3]; 25 μM compound + 100 μM Cys): No fluorescence
SSP4 fluorescence response (H2S2 formation) ([3]; 25 μM compound only): No fluorescence
SSP4 fluorescence in HeLa cells (HeLa cells; compound 50 μM + Na2S 100 μM): Obvious fluorescence in these samples was not observed
SSP4 fluorescence in HeLa cells (HeLa cells; compound only): did not show obvious fluorescence
